Values of other authors, collected in patent US20110105450A1, “OPHTHALMIC FORMULATIONS OF FLUTICASONE AND METHODS OF USE” (Aciex Therapeutics, Inc., priority 2009, published 2011).
In brackets after ≈: the same amount, converted by molar mass.

- solubility in 95% ethanol (95% ethanol): slightly soluble
- solubility in dimethyl sulfoxide (dimethyl sulfoxide): freely soluble
- solubility in dimethyl-formamide (dimethyl-formamide): freely soluble
- solubility in methanol (methanol): slightly soluble
- solubility in water (water): 0.14 µg/mL (≈ 0.28 µM)
Structure (SMILES): CCC(=O)O[C@]1(C(=O)SCF)[C@H](C)C[C@H]2[C@@H]3C[C@H](F)C4=CC(=O)C=C[C@]4(C)[C@@]3(F)[C@@H](O)C[C@@]21C [Fluticasone propionate, S-fluoromethyl-6-α-9-difluoro-11-β-hydroxy-16-α-methyl-3-oxoandrosta-1,4-diene-17-β-carbothioate, 17-propionate]
